{
  "source": "patent US7423030B2",
  "about": "“1-amino-phthalazine derivatives, the preparation and the therapeutic use thereof” (Sanofi-Aventis, priority 2004, dated 2008)",
  "origin": "cited, not measured here",
  "tested_on": "MCH1 receptor",
  "settings": "social conflict and forced swimming in rats, maternal separation in guinea pigs; cited from earlier work",
  "data": [
    {"smiles": "COCC1=C(C(=O)OC)[C@H](c2ccc(F)c(F)c2)N(C(=O)NCCCN2CCC(c3cccc(NC(C)=O)c3)CC2)C(=O)N1", "note": "[SNAP-7941]", "values": [
      {"measurement": "behavioural profile in animal models", "result": "anxiolytic and/or antidepressant profile"}
    ]}
  ]
}
